Assays:
VRG neurons = assay: Whole-cell recording of spontaneous action potentials in VRG neurons; format: cell-based, C57BL/6J mice
[1] = format: in vivo, human; settings: victim serum, UPLC-Q Exactive MS/MS
[2] = system: gelsenicine (1)-poisoned mice; assay: Antidote screening: survival of gelsenicine-poisoned mice; format: in vivo, Kunming mice; settings: gelsenicine 0.22 mg/kg i.p.
[3] = cited from earlier work
[4] = Acute toxicity of pure Gelsemium alkaloids in mice; settings: both, Kunming, mouse, in vivo, ip, 30 mg/kg
[5] = Detection of toxic alkaloids in mouse plasma after oral G. elegans extract; format: in vivo, Kunming mice; settings: mice, oral G. elegans 95% ethanolic extract 200 mg/kg, blood 5 min after gavage
mice = assay: Respiratory function by whole-body plethysmography; format: in vivo, C57BL/6J mice; settings: 0.22 mg/kg intraperitoneal
[6] = Quantitative analysis of gelsenicine in medulla; format: in vivo, C57BL/6J mice; settings: 1 mg/kg intraperitoneal
CA1 pyramidal neurons = assay: Whole-cell recording in hippocampal CA1 pyramidal neurons; format: cell-based, C57BL/6J mice

With CN1CCc2cc3c(cc2[C@H]1[C@@H]1OC(=O)c2c1ccc1c2OCO1)OCO3 [bicuculline, reference compound] as the compound, how does the “Effect on firing of VRG neurons inhibited by gelsenicine” value (VRG neurons; bicuculline 20 μmol/L after gelsenicine 1 μmol/L) read?
The value was “restoring the normal firing rate”.

For picrotoxin [reference compound], which “Effect on VRG neuron activity (firing rate vs baseline)” value (VRG neurons; picrotoxin 50 μmol/L alone) is on record?
Its value is “robust increase in activity”.

For C=C[C@]12CN(C)[C@@H]3[C@H]4CO[C@H](C[C@H]41)[C@]1(C(=O)Nc4ccccc41)[C@@H]32 [Compound 24, gelsemine], which “Detection in the clinical blood sample” value [1] is on record?
Its value is “could also be detected”.

For O=C1C=C2C=C[C@@H]3C[C@@]2(O1)[C@H]1CCCCN31 [securinine], which “Survival rate of poisoned mice” value ([2]; antidote 3 mg/kg i.p.) is on record?
The value was 50%.

And the “Time to peak concentration in plasma” value ([3]; intraperitoneal injection)?
Its value is ≤ 9 min.

What about the “Time to peak concentration in the brain” value ([3]; intraperitoneal injection) of the same compound?
Its value is ≤ 30 min.

For CCC1=N[C@H]2C[C@@]3(C(=O)N(OC)c4ccccc43)[C@H]3C[C@@H]1[C@@H]2CO3 [Compound 1, gelsenicine], which LD50 at 7 days [4] is on record?
Its LD50 at 7 days is 0.14 mg/kg.

What about the “Detection in the clinical blood sample” value [1] of the same compound?
Its value is “clearly detected”.

What about the Detection in plasma [5] of the same compound?
Its Detection in plasma is “detected in the plasma”.

What about the “Time to severe respiratory distress after injection” value (mice) of the same compound?
Its value is 5 to 10 min.

What about the “Peak expiratory flow, peak inspiratory flow, frequency, tidal volume and minute ventilation” value (mice; vs saline) of the same compound?
The value was “significant reduction”.

What about the Distribution to medulla ([6]; C57BL/6 mice, 5 and 10 min) of the same compound?
The Distribution to medulla was “quickly distributed to medulla at 5 min, and sustained until 10 min”.

What about the Time of death ([6]; mice) of the same compound?
Its Time of death is “around 10 min”.

What about the “Decrease of action potential firing rate” value (VRG neurons; VRG neurons, 1 μmol/L) of the same compound?
Its value is “about 60%”.

And the “Decrease of action potential firing rate” value (VRG neurons; VRG neurons, 2 μmol/L)?
The value was “about 70%”.

What about the “Effect on action potential firing” value (VRG neurons; VRG neurons, 0.3 and 0.6 μmol/L) of the same compound?
Its value is “did not have an inhibitory effect”.

What about the “Effect on firing rate of picrotoxin-treated VRG neurons” value (VRG neurons; gelsenicine 1 μmol/L in the presence of picrotoxin 50 μmol/L) of the same compound?
The value was “did not affect the firing rate”.

What about the “Concentration at which action potentials were suppressed” value (CA1 pyramidal neurons; CA1 pyramidal neurons) of the same compound?
The value was ≥ 5 µmol/L.

What about the “Effect on action potential firing” value (CA1 pyramidal neurons; CA1 pyramidal neurons, 1 and 2 μmol/L) of the same compound?
Its value is “failed to show an inhibitory effect”.

And the “Effect on miniature inhibitory synaptic currents (mIPSCs)” value (CA1 pyramidal neurons; hippocampus CA1 region, 5 μmol/L)?
The value was “increased the amplitude”.

And the “Time of death after administration” value ([2]; mice, no antidote)?
The value was “around 15 min”.

With CCOC(=O)c1ncn2c1CN(C)C(=O)c1cc(F)ccc1-2 [flumazenil] as the compound, how does the “Survival rate of poisoned mice” value ([2]; antidote 3 mg/kg i.p.) read?
Its value is 50%.

What about the “Time to peak level” value ([3]; oral or intravenous, clinical and animal studies) of the same compound?
The value was ≤ 5 min.

For CCC1(C)CC(=O)NC(=O)C1 [bemegride], which “Survival rate of poisoned mice” value ([2]; antidote 6.5 mg/kg i.p.) is on record?
Its value is 30%.

What about the “Time to peak concentration and passage into the brain” value [3] of the same compound?
The value was ≤ 30 min.

For C=C[C@@]12CN(C)[C@H]3C[C@]14C(=Nc1ccccc14)[C@@H]1C[C@@H]2[C@@H]3CO1 [Compound 32, koumine], which LD50 at 7 days [4] is on record?
The LD50 at 7 days was > 30 mg/kg.

And the “Detection in the clinical blood sample” value [1]?
The value was “could also be detected”.

Which LD50 at 7 days [4] does the source give for C/C=C1\CN(C)[C@H]2C[C@@]3(C(=O)N(OC)c4ccccc43)[C@H]3C[C@@H]1[C@@H]2CO3 [Compound 17, humantenine] here?
Its LD50 at 7 days is 7.11 mg/kg.

What about the “Detection in the clinical blood sample” value [1] of the same compound?
The value was “clearly detected”.

And the Detection in plasma [5]?
The Detection in plasma was “detected in the plasma”.

From article PMC12491680 (Acta Pharmaceutica Sinica. B, 2025)
